Assay results published in US11958832B1, “2-alkoxy[4,3:6,3-terpyridine]-3-carbonitriles as antimicrobial compounds” (KING FAISAL UNIVERSITY, priority 2023, dated 2024).

Tests used:
Assay type in all cases: cell-based
Pseudomonas aeruginosa = assay: Agar plate disc-diffusion, antibacterial inhibition zone; conditions: nutrient agar, 37° C., 48 hours, DMSO zone subtracted; for inhibition zone, Pseudomonas aeruginosa, A: A = concentration of comp. = 10,000 μL; for inhibition zone, Pseudomonas aeruginosa, B: B = concentration of comp. = 30,000 μL; for inhibition zone, Pseudomonas aeruginosa, C: C = concentration of comp. = 50,000 μL
Protocol: (§1) The agar plate disc-diffusion method was applied. Sterilized filter papers (6 mm in diameter) were wetted with 10 μL of a solution of compounds 2-ethoxy[4,3:6,3-terpyridine]-3-carbonitrile 4 and/or 2-methoxy[4,3:6,3-terpyridine]-3-carbonitrile 5 to be tested, […], and the discs were allowed to air dry. The discs were then placed onto the surface of agar plates (nutrient agar for bacteria and Sabouraud's dextrose agar for fungi) seeded with the test organism. Each plate contained 15 mL of the agar medium, previously seeded with 0.2 mL of the broth culture of each organism pregrown for 18 h. The plates were incubated at 37° C. for 48 hours, and 72 hours for fungi. The inhibition zones were measured in mm. Discs impregnated with DMSO were used as a control, and its inhibition zone was subtracted from the tested compound actual inhibition zone.

Escherichia coli = assay: as above; conditions: nutrient agar, 37° C., 48 hours, DMSO zone subtracted; for inhibition zone, Escherichia coli, A: A = concentration of comp. = 10,000 μL; for inhibition zone, Escherichia coli, B: B = concentration of comp. = 30,000 μL; for inhibition zone, Escherichia coli, C: C = concentration of comp. = 50,000 μL
Protocol: as §1

Bacillus cereus = assay: as above; conditions: nutrient agar, 37° C., 48 hours, DMSO zone subtracted; for inhibition zone, Bacillus Cereus, A: A = concentration of comp. = 10,000 μL; for inhibition zone, Bacillus Cereus, B: B = concentration of comp. = 30,000 μL; for inhibition zone, Bacillus Cereus, C: C = concentration of comp. = 50,000 μL
Protocol: as §1

Staphylococcus aureus = assay: as above; conditions: nutrient agar, 37° C., 48 hours, DMSO zone subtracted; for inhibition zone, Staphylococcus aureus, A: A = concentration of comp. = 10,000 μL; for inhibition zone, Staphylococcus aureus, B: B = concentration of comp. = 30,000 μL; for inhibition zone, Staphylococcus aureus, C: C = concentration of comp. = 50,000 μL
Protocol: The agar plate disc-diffusion method was applied. […] The discs were then placed onto the surface of agar plates (nutrient agar for bacteria and Sabouraud's dextrose agar for fungi) seeded with the test organism. Each plate contained 15 mL of the agar medium, previously seeded with 0.2 mL of the broth culture of each organism pregrown for 18 h. The plates were incubated at 37° C. for 48 hours, and 72 hours for fungi. The inhibition zones were measured in mm. Discs impregnated with DMSO were used as a control, and its inhibition zone was subtracted from the tested compound actual inhibition zone.

[1] = system: Chrysosporium keratinophilum; assay: Agar plate disc-diffusion, antifungal inhibition zone; conditions: Sabouraud's dextrose agar, 37° C., 72 hours, DMSO zone subtracted; for inhibition zone, Chrysosporium keratinophilum, A: A = concentration of comp. = 10,000 μL; for inhibition zone, Chrysosporium keratinophilum, B: B = concentration of comp. = 30,000 μL; for inhibition zone, Chrysosporium keratinophilum, C: C = concentration of comp. = 50,000 μL
Protocol: as §1

Aspergillus flavus = assay: as above; conditions: Sabouraud's dextrose agar, 37° C., 72 hours, DMSO zone subtracted; for inhibition zone, Aspergillus flavus, A: A = concentration of comp. = 10,000 μL; for inhibition zone, Aspergillus flavus, B: B = concentration of comp. = 30,000 μL; for inhibition zone, Aspergillus flavus, C: C = concentration of comp. = 50,000 μL
Protocol: as §1

Row | Structure (SMILES) | inhibition zone, Pseudomonas aeruginosa, A (Pseudomonas aeruginosa) [mm] | inhibition zone, Pseudomonas aeruginosa, B (Pseudomonas aeruginosa) [mm] | inhibition zone, Pseudomonas aeruginosa, C (Pseudomonas aeruginosa) [mm] | inhibition zone, Escherichia coli, A (Escherichia coli) [mm] | inhibition zone, Escherichia coli, B (Escherichia coli) [mm] | inhibition zone, Escherichia coli, C (Escherichia coli) [mm] | inhibition zone, Bacillus Cereus, A (Bacillus cereus) [mm] | inhibition zone, Bacillus Cereus, B (Bacillus cereus) [mm] | inhibition zone, Bacillus Cereus, C (Bacillus cereus) [mm] | inhibition zone, Staphylococcus aureus, A (Staphylococcus aureus) [mm] | inhibition zone, Staphylococcus aureus, B (Staphylococcus aureus) [mm] | inhibition zone, Staphylococcus aureus, C (Staphylococcus aureus) [mm] | inhibition zone, Chrysosporium keratinophilum, A [1] [mm] | inhibition zone, Chrysosporium keratinophilum, B [1] [mm] | inhibition zone, Chrysosporium keratinophilum, C [1] [mm] | inhibition zone, Aspergillus flavus, A (Aspergillus flavus) [mm] | inhibition zone, Aspergillus flavus, B (Aspergillus flavus) [mm] | inhibition zone, Aspergillus flavus, C (Aspergillus flavus) [mm]
1 | CCOc1nc(-c2cccnc2)cc(-c2cccnc2)c1C#N [Compound 4, 2-ethoxy[4,3:6,3-terpyridine]-3-carbonitrile] | 24 | 29 | 39 | 27 | 37 | 48 | 24 | 27 | 35 | 18 | 22 | 34 | 24 | 27 | 40 | 21 | 25 | 35
2 | COc1nc(-c2cccnc2)cc(-c2cccnc2)c1C#N [Compound 5, 2-methoxy[4,3:6,3-terpyridine]-3-carbonitrile] | 24 | 32 | 38 | 28 | 38 | 50 | 26 | 28 | 38 | 19 | 28 | 34 | 27 | 29 | 48 | 25 | 27 | 38
